Source: patent US6797285B1, “Leaves of Cajanus Cajan(L.) Millsp and extract, formulation and uses thereof” (priority 1999, dated 2004)
Marks after values point to notes of the source that are not given here.

Tests used:
[1] = system: mouse pain induced by acetic acid; assay: writhing response on mouse (acetic acid); type: in vivo, NIH mice; conditions: 0.013 g/kg/day, gavage 7 days
Procedure: Divided the mice into 5 groups randomly, i.e. control group (0.2 ml/10 g distilled water), indometacin-treated group (0.013 g/kg) and three Shengmaichenggu capsule-treated groups (dosages are shown in table 10). The mice were administered by gavage for 7 days. […] Recorded the first time when the writhing response appeared caused by pain for each mouse, the number of the writhing response appeared in 10 minute and the analgesic percent.

threshold of pain = assay: hot-plate test on mouse; type: in vivo, NIH female mice
Procedure: Adjusted the temperature of water bath box to 55° C.±1° C. I.C. Immersed one big beaker in the water bath and put mice into the beaker. Recorded the period from the time when animals were put into the beaker to that when animals licked feet due to pain, and defined the period as the threshold of pain of that mouse.
Screened out the mice whose threshold of pain were in the range of 5-30 seconds, and divided them randomly into 5 groups including control group, indometacin-treated group and three Shengmaichenggu capsule-treated groups (The dosage are shown in table 11). Administered medicaments to animals by gavage for continuous 7 days. Determined the threshold of pain at the time of 30 minutes and 60 minutes after the administration at day 7 respectively, and observed the changes in the threshold of pain after administration. Room temperature should be controlled in the range of 15-20° C.

[2] = system: mouse pinnal inflammation caused by dimethylbenzene; assay: mouse pinnal inflammation induced by dimethylbenzene; type: in vivo, NIH mice; conditions: 0.013 g/kg/day, gavage 7 days
Procedure: Divided the mice into 5 groups randomly with 8 mice each, i.e. control group, indometacin-treated group and three Shengmaichenggu capsule-treated groups (dosages are shown in table 12). The mice were administered medicaments in different concentration by gavage. […] Killed the mice after […] by decollation. Cut out the equal area at the same position from both ears of the mouse with perforator, and weighted with torsion balance. The swell degree is defined as the weight difference of subtracting the weight of the right ear from that of the left. Analyzed the data of swell degree of the control group and the treated groups statistically.

monocytophagous function = monocytophagous function of mouse (china ink clearance), prednisone acetate immunosuppression; type: in vivo, NIH mice; conditions: 0.04 g/kg/day, gavage 20 days
Procedure: (§1) The mice were divided into 6 groups randomly, i.e. control group, modeled group, levamisole-treated group, and three Shengmaichenggu capsule-treated groups (dosages are shown in table 14). […] Administered distilled water to the control group by gavage in the same period. At the time of 30 minutes after administering on the day 20, injected […] into tail vein at a dosage of 0.01 ml/l10 g. At the 2th and 12th minute after injection, took 10 μl orbit blood and put into 3 ml 0.1% Na2CO3 solution and shook up. Detected optical density (OD) by colorimetric analysis in 722-grating photometer (λ=620). […] The animals were killed by dislocating cervical vertebra. The liver and spleen were weighted respectively. Determined the weight of immune organs of every mouse according to the immune organ weighting method. Calculated the immune organ index and made a statistical analysis for the result.

[3] = system: immune organs (thymus, spleen); assay: immune organ coefficient of mouse, prednisone acetate immunosuppression; type: in vivo, NIH mice; conditions: Dosage/kg/day 0.04
Procedure: as §1

serum hemolysin = assay: hemolysin content of mouse immunised by chicken blood cells; type: in vivo, NIH mice; conditions: 0.04 g/kg/day
Procedure: The grouping and administering scheme was the same as that of the above-mentioned Experiment of nonspecific immunological functions. At the first day of administration, injected 5% suspension of chicken red blood cells to abdominal cavity of mice at a dosage of 0.2 ml/one mouse. Seven days after immunization, took blood from eyeball and centrifuged. The serum was diluted 100 times with physiological saline. 1 ml of the diluted serum was mixed with 0.5 ml of 5% suspension of chicken red blood cells and 0.5 ml of 10% complement. After incubation in an incubator at 37° C. for 30 minutes, the reaction was terminated by putting the mixture into a 0° C. refrigerator.
The formulated test solution was centrifuged. Took the supernatant and detected optical density (OD) by colorimetric analysis in 722-grating photometer (λ=620). Set up a control group free of serum and took the supernatant of the centrifuged test solution of this group as the “0” basis for colorimetric assay. Took “OD” as the index for quantifying the serum hemolysin and analysed the data statistically.

mice lymphocyte = assay: cellular immunity test: transformation reaction of mice lymphocyte (PHA); type: in vivo, NIH mice; conditions: 0.04 g/kg/day
Procedure: The mice were divided into 6 groups randomly, i.e. control group, model group levamisole-treated group, and three Shengmaichenggu capsule-treated groups at different dosages (dosages are shown in table 17). Administered by gavage once a day for continuous 7 days. After the last administration, all the animals were immunized by injecting 5% suspension of chicken red blood cells to abdominal cavity at a dosage of 0.2 ml/one mouse. Then the animals were injected PHA to abdominal cavity at a dosage of 0.025 ml/10 g for continuous 3 days. All groups except control group were administered prednisone acetate at a dosage of […] body weight by gavage for continuous 7 days. At the time of 12 hours after last administration, the experiment was carried out according to the Experiment of the content of mouse hemolysin mentioned above in which chicken blood cells were used as immunogen.

tampon-induced granuloma = assay: granuloma induced by tampon on rat; type: in vivo, SD rats; conditions: 25 mg/kg/day, gavage
Procedure: The rats were divided into 5 groups randomly with 12 rats each group, i.e. control group, prednisone acetate-treated group and three Shengmaichenggu capsule-treated groups. An incision was made aseptically along the dorsimeson of a rat anesthetized by pentobarbital sodium and a sterilized tampon was imbedded into the incision and sewed up. The treated groups were administered by gavage 3 days before surgery until the day 7 after surgery. At the 8th day after surgery, the rats were killed by decollation. Avulsed out the tampon-caused granuloma tissue and dried it at 60-90° C. in a oven for 1 hour. Then weighted and subtracted the initial weight of tampon to get the net weight of granuloma tissue. Compared the granuloma weight among these groups and analyzed the results statistically.

acute blood stasis model = assay: hermorheology index of rat acute blood stasis model; type: in vivo, SD rats; conditions: 90 mg/kg/day, gavage 20 days
Procedure: The rats were divided into 6 groups randomly, i.e. normal control group, blood stasis model group, Tetramethylpyrazine phosphate-treated group and three Shengmaichegngu capsule-treated groups (the dosage were shown in table 9). The control group and the blood stasis model group were administered equal volume of distilled water by gavage. Every treated groups were administered liquor drug with different concentrations at a dosage of 2 ml/100 g weight/day, once daily at a fixed time for 20 days. When 24 hours after the last administration, animals except the normal control group were injected epinephrine hydrochloride hypodermically for two times (0.8 mg/kg) with an interval of 3 hours. The rats were immersed in water at 4±1° C. for 5 minutes at the time of 1.5 hour after the first injection of epinephrine hydrochloride, then the animals fast. In the next morning, eyeball blood was taken from anesthetized animals (injected pentobarbital sodium to abdominal cavity at a dosage of 30 mg/kg ). Hermorheology indexes were determined which include specific viscosity of whole blood, specific viscosity of plasma, erythrocyte sedimentation and hematokrit.

## COc1ccc2c(c1)c(CC(=O)O)c(C)n2C(=O)c1ccc(Cl)cc1 [Indometacin, indometacin]
[1]
  Analgesic percent: 75## %
  Number of writhing mice: 2##
  The First time when the writhing response appeared: 572.75 ± 182.13 s
Threshold of pain; 0.013 g/kg/day, day 7, 30 min
  Threshold of pain at different time after administration, 30 min: 28.07 ± 6.67 S
Threshold of pain; 0.013 g/kg/day, day 7, 60 min
  Threshold of pain at different time after administration, 60 min: 24.64 ± 6.49 S
Threshold of pain; baseline, group 0.013 g/kg/day
  Threshold of pain before administration: 18.93 ± 5.41 S
[2]
  Swell degree: 0.5500 ± 0.258 mg

## c1ccc([C@H]2CN3CCSC3=N2)cc1 [Levamisole, levamisole]
Monocytophagous function
  Phagocytic activity α: 5.1964 ± 0.7761
  Phagocytic count K: 0.0273 ± 0.00852
[3]
  Immune organ coefficient, Spleen: 52.82 ± 0.887 mg/kg
  Immune organ coefficient, Thymus: 1.501 ± 0.334 mg/kg
Serum hemolysin
  OD (Optical density), hemolysin content: 0.7370 ± 0.1444
Mice lymphocyte
  Transformation rate of lymphocyte: 0.7370 ± 0.03234 %
  limphoblast: 0.4310 ± 0.05043 %
  transition state cells: 0.3050 ± 0.0495 %

## CC(=O)OCC(=O)[C@@]1(O)CC[C@H]2[C@@H]3CCC4=CC(=O)C=C[C@]4(C)[C@H]3C(=O)C[C@@]21C [Prednisone acetate, prednisone acetate]
tampon-induced granuloma
  Net weight of granuloma: 33.45 ± 13.10 mg

## Cc1nc(C)c(C)nc1C.O=P(O)(O)O [Tetramethylpyrazine phosphate]
Acute blood stasis model
  Erythrocyte sedimentation: 1.80 ± 0.27
  Hematokrit: 43.55 ± 2.39
  Specific viscosity of plasma: 1.95 ± 0.08
  Specific viscosity of whole blood, High shearviscosity coefficient: 5.59 ± 0.40
  Specific viscosity of whole blood, Lower shearviscosity coefficient: 20.87 ± 2.63
